From PMC7472354, “Enhanced Antimicrobial Activity of N-Terminal Derivatives of a Novel Brevinin-1 Peptide from The Skin Secretion of Odorrana schmackeri” (Toxins, 2020)
Converted amounts (≈) assume the structure as drawn. Where two headings read alike, the source gives them in different places. Where a SMILES comes first, the peptide text is derived from it. Bridges are numbered along the chain shown (N, C = ends).

What was measured:
[1] = test system: E. faecalis; format: cell-based, Enterococcus faecalis; conditions: 24 h
Description: (§1) The minimal inhibitory concentrations (MICs) and minimum bactericidal concentrations (MBCs) were evaluated to determine the antimicrobial activity of synthetic peptides. The microorganisms employed in the study are two kinds of Gram-negative bacteria, Escherichia coli (NCTC 10418) and Pseudomonas aeruginosa (ATCC 27853), three kinds of Gram-positive bacteria, Staphylococcus aureus (NCTC 10788), Methicillin-resistant Staphylococcus aureus (MRSA, ATCC 12493) and Enterococcus faecalis (NCTC 12697) and a yeast, Candida albicans (NCPF 1467), as indicated previously. For antimicrobial assays, 5 × 10^5 CFU/mL of bacterial suspensions were incubated with the concentrations of the peptides (ranging from 1 µM to 512 µM) for 24 h at 37 °C. The sterilised broth medium was used as the positive control and the microorganism cultured in the medium only was treated as the negative control. […] The MBC results were defined as the lowest bactericidal concentrations of peptide. The antimicrobial activity of peptides was tested by monitoring the absorbance at 550 nm using an ELISA plate reader (Biolise BioTek EL808, Winooski, VT, USA).
(§2) The activity of peptides in the different environmental conditions including different concentrations of NaCl (50, 100 and 150 mM) and MgCl2 (0.5, 1 and 2 mM), pH (6, 7 and 8), temperature (50 °C, 75 °C and 100 °C) and 10% fetal bovine serum (FBS) solution, was evaluated using the broth microdilution assay as described in the antimicrobial activity assay. For the stability test of peptides in the presence of salt, pH and serum, these conditions were adjusted in the fresh medium that was further used to dilute the bacteria suspension. The peptides were also dissolved in such broth and mixed with the bacteria suspension in the 96 well plate. For the thermal stability test, the peptides were dissolved in the water and incubated at different temperature for 15 min before dosing in the plate. The sterilised broth with corresponding conditions was used as the positive controls, and the bacteria suspension without any treatment was used as the negative controls.

[2] = test system: E. faecalis (NCTC 12697) biofilm; format: cell-based, Enterococcus faecalis
Description: (§3) The anti-biofilm effects of all synthetic peptides were evaluated, which was described in our previous study. The organisms, including S. aureus (NCTC 10788), E. coli (NCTC 10418), MRSA (ATCC 12493), E. faecalis (NCTC 12697) and P. aeruginosa (ATCC 27853), were investigated in this study. Gram-positive bacteria were cultured in the TSB broth and Gram-negative bacteria were cultured in the LB broth. The anti-biofilm effects were determined based on the MBIC and MBEC of all the peptides. For the determination of MBIC, 5 × 10^5 CFU/mL bacterial cultures were incubated with the peptides concentrations (ranging from 1 µM to 512 µM) for 24 h. The sterilised medium and bacterial suspension without any treatment were used as the negative controls and positive controls, respectively. After incubation, wells were rinsed, fixed, stained, washed and dissolved with phosphate buffer saline (PBS), methanol (90%, v/v), crystal violet (0.1%, w/v), sterile deionised water and acetic acid (30%, v/v), respectively. The absorbance of dissolved stain was measured at a 595 nm using a Synergy HT plate reader (Biotech, Minneapolis, MN, USA).
(§4) For the MBEC assay, the peptide concentrations were prepared as above. The bacteria were cultured in the 96 well plate for 24–48 h, which allowed the formation of mature biofilm in the plate. Then, the bacterial culture was removed from the plate. The biofilm was further washed to remove the planktonic bacteria using PBS. Then, the fresh broth that contained different peptide concentrations was added in the plate for incubation of 24 h at 37 °C. After incubation, the plate was stained by crystal violet as mentioned above. The definition of MBIC can be given when compared to the negative control group (≥90%, MBIC90; ≥50%, MBIC50). The definition of the MBEC can be given when compared to the negative control group (≥90%, MBEC90; ≥50%, MBEC50).

[3] = test system: C. albicans; format: cell-based, Candida albicans; conditions: 24 h
Description: as §1, §2

[4] = test system: S. aureus (NCTC 10788) biofilm; format: cell-based, Staphylococcus aureus
Description: as §3, §4

[5] = test system: MRSA (ATCC 12493) biofilm; format: cell-based, Staphylococcus aureus
Description: as §3, §4

[6] = test system: P. aeruginosa; format: cell-based, Pseudomonas aeruginosa; conditions: 24 h
Description: as §1, §2

[7] = test system: E. coli (NCTC 10418) biofilm; format: cell-based, Escherichia coli
Description: as §3, §4

[8] = test system: MRSA; format: cell-based, Staphylococcus aureus; conditions: 24 h
Description: as §1, §2

[9] = test system: S. aureus; format: cell-based, Staphylococcus aureus; conditions: 24 h
Description: as §1, §2

[10] = test system: E. coli; format: cell-based, Escherichia coli; conditions: 24 h
Description: as §1, §2

[11] = test system: P. aeruginosa (ATCC 27853) biofilm; format: cell-based, Pseudomonas aeruginosa
Description: as §3, §4

[12] = test system: Methicillin-resistant Staphylococcus aureus (MRSA, ATCC 12493); format: cell-based; conditions: for MBC: ATCC 12493, 18 h; for MIC: ATCC 12493, 24 h
Description: as §1, with “For antimicrobial assays, 5 × 10^5 CFU/mL of bacterial suspensions were incubated with the concentrations of the peptides (ranging from 1 µM to 512 µM) for 24 h at 37 °C.” left out

[13] = test system: Pseudomonas aeruginosa (ATCC 27853); format: cell-based; conditions: for MBC: ATCC 27853, 18 h; for MIC: ATCC 27853, 24 h
Description: as §1, with “For antimicrobial assays, 5 × 10^5 CFU/mL of bacterial suspensions were incubated with the concentrations of the peptides (ranging from 1 µM to 512 µM) for 24 h at 37 °C.” left out

[14] = test system: Enterococcus faecalis (NCTC 12697); format: cell-based; conditions: for MBC: NCTC 12697, 18 h; for MIC: NCTC 12697, 24 h
Description: as §1, with “For antimicrobial assays, 5 × 10^5 CFU/mL of bacterial suspensions were incubated with the concentrations of the peptides (ranging from 1 µM to 512 µM) for 24 h at 37 °C.” left out

[15] = test system: Staphylococcus aureus (NCTC 10788); format: cell-based; conditions: for MBC: NCTC 10788, 18 h; for MIC: NCTC 10788, 24 h
Description: as §1, with “For antimicrobial assays, 5 × 10^5 CFU/mL of bacterial suspensions were incubated with the concentrations of the peptides (ranging from 1 µM to 512 µM) for 24 h at 37 °C.” left out

[16] = test system: Candida albicans (NCPF 1467); format: cell-based; conditions: for MBC: NCPF 1467, 18 h; for MIC: NCPF 1467, 24 h
Description: as §1, with “For antimicrobial assays, 5 × 10^5 CFU/mL of bacterial suspensions were incubated with the concentrations of the peptides (ranging from 1 µM to 512 µM) for 24 h at 37 °C.” left out

[17] = test system: Escherichia coli (NCTC 10418); format: cell-based; conditions: for MBC: NCTC 10418, 18 h; for MIC: NCTC 10418, 24 h
Description: as §1, with “For antimicrobial assays, 5 × 10^5 CFU/mL of bacterial suspensions were incubated with the concentrations of the peptides (ranging from 1 µM to 512 µM) for 24 h at 37 °C.” left out

[18] = test system: Galleria mellonella larvae; test: Toxicity to uninfected Galleria mellonella larvae; format: in vivo; conditions: uninfected G. mellonella larvae injected with drug; n = 30 per group; vancomycin 20 mg/kg
Description: The in vivo study of antimicrobial activity of the peptides was evaluated using the larvae of Galleria mellonella, which was described in the previous study with minor modifications. The larvae of Galleria mellonella (250 ± 25 mg; Livefood UK Ltd., Rooks Bridge, UK) were selected. The MRSA culture was prepared the same way as the antimicrobial activity assay. Then, MRSA cells were collected and washed, and further diluted to 10^8 CFU/mL in the saline. Ten µL of MRSA suspension was injected to the larvae and placed in a petri dish. After 2 h, the MRSA infected larvae were administrated with 10 µL of peptides (25 mg/kg, 50 mg/kg) by injection. Saline and vancomycin (20 mg/kg) (Sigma-Aldrich, UK) were used as the negative control and positive control, respectively. Each sample group contained 10 larvae, and the experiment was repeated three times (30 larvae for each group in total). The survival curves were achieved using Prism (Version 6.0; GraphPad Software Inc., San Diego, CA, USA) and the log-rank test was employed to analyze the significance between the different treatments and the controls. * (p < 0.05), ** (p < 0.01) and *** (p < 0.001) represent statistical significance.
Figure A9 Larvae without any MRSA infection were injected with peptides and vancomycin respectively to access the cytotoxicity of the drugs to larvae bodies. […] Effect of treatment of G. mellonella larvae (n = 30 for each group) without any infection and only treated with 5 µL vancomycin (20 mg/kg), OSd, OSe and OSf.

## CC[C@H](C)[C@H](NC(=O)CNC(=O)[C@@H]1CCCN1C(=O)[C@H](CC(C)C)NC(=O)[C@@H](N)Cc1ccccc1)C(=O)N[C@@H](CC(C)C)C(=O)N[C@@H](CCCCN)C(=O)N[C@H](C(=O)N[C@@H](C)C(=O)N[C@@H](C)C(=O)N[C@@H](CC(N)=O)C(=O)N[C@H](C(=O)N[C@H](C(=O)N1CCC[C@H]1C(=O)NCC(=O)N[C@H](C(=O)N[C@H](C(=O)N[C@H]1CSSC[C@@H](C(=O)O)NC(=O)[C@H](CCCCN)NC(=O)[C@H](CCCCN)NC(=O)[C@H]([C@@H](C)O)NC(=O)[C@H]([C@@H](C)CC)NC(=O)[C@H](C)NC1=O)[C@@H](C)CC)C(C)C)C(C)C)C(C)C)C(C)C [Brevinin-1OS] (H-FLPGILKVAANVVPGVICAITKKC-OH; disulfide 18-24)
[1]; pH 6
  MIC: 128 µM (≈ 314 µg/mL)
[1]; pH 7
  MIC: 32 µM (≈ 78.5 µg/mL)
[1]; pH 8
  MIC: 16 µM (≈ 39.2 µg/mL)
[2]
  MBEC50: 256 µM
  MBEC90: > 512 µM
[2]; NCTC 12697, 24 h
  MBIC50: 32 µM
  MBIC90: 64 µM
[3]; pH 6
  MIC: 64 µM (≈ 157 µg/mL)
[3]; pH 7
  MIC: 16 µM (≈ 39.2 µg/mL)
[3]; pH 8
  MIC: 16 µM (≈ 39.2 µg/mL)
[4]
  MBEC50: 32 µM
  MBEC90: 64 µM
[4]; NCTC 10788, 24 h
  MBIC50: 4 µM
  MBIC90: 4 µM
[5]
  MBEC50: 64 µM
  MBEC90: 256 µM
[5]; ATCC 12493, 24 h
  MBIC50: 8 µM
  MBIC90: 32 µM
[6]; pH 6
  MIC: 128 µM (≈ 314 µg/mL)
[6]; pH 7
  MIC: 256 µM (≈ 628 µg/mL)
[6]; pH 8
  MIC: 256 µM (≈ 628 µg/mL)
[7]
  MBEC50: > 512 µM
  MBEC90: > 512 µM
[7]; NCTC 10418, 24 h
  MBIC50: 128 µM
  MBIC90: 128 µM
[8]; pH 6
  MIC: 64 µM (≈ 157 µg/mL)
[8]; pH 7
  MIC: 8 µM (≈ 19.6 µg/mL)
[8]; pH 8
  MIC: 4 µM (≈ 9.81 µg/mL)
[9]; pH 6
  MIC: 8 µM (≈ 19.6 µg/mL)
[9]; pH 7
  MIC: 4 µM (≈ 9.81 µg/mL)
[9]; pH 8
  MIC: 4 µM (≈ 9.81 µg/mL)
[10]; pH 6
  MIC: 32 µM (≈ 78.5 µg/mL)
[10]; pH 7
  MIC: 32 µM (≈ 78.5 µg/mL)
[10]; pH 8
  MIC: 128 µM (≈ 314 µg/mL)
[11]
  MBEC50: 512 µM
  MBEC90: 512 µM
[11]; ATCC 27853, 24 h
  MBIC50: 256 µM
  MBIC90: 256 µM
[12]
  MBC: 32 µM (≈ 78.5 µg/mL)
  MIC: 32 µM (≈ 78.5 µg/mL)
[13]
  MBC: > 512 µM
  MIC: 256 µM (≈ 628 µg/mL)
[14]
  MBC: 16 µM (≈ 39.2 µg/mL)
  MIC: 8 µM (≈ 19.6 µg/mL)
[15]
  MBC: 16 µM (≈ 39.2 µg/mL)
  MIC: 4 µM (≈ 9.81 µg/mL)
[16]
  MBC: 64 µM (≈ 157 µg/mL)
  MIC: 8 µM (≈ 19.6 µg/mL)
[17]
  MBC: > 512 µM
  MIC: 128 µM (≈ 314 µg/mL)

## CN[C@H](CC(C)C)C(=O)N[C@H]1C(=O)N[C@@H](CC(N)=O)C(=O)N[C@H]2C(=O)N[C@H]3C(=O)N[C@H](C(=O)N[C@H](C(=O)O)c4cc(O)cc(O)c4-c4cc3ccc4O)[C@H](O)c3ccc(c(Cl)c3)Oc3cc2cc(c3O[C@@H]2O[C@H](CO)[C@@H](O)[C@H](O)[C@H]2O[C@H]2C[C@](C)(N)[C@H](O)[C@H](C)O2)Oc2ccc(cc2Cl)[C@H]1O [vancomycin, reference compound]
[18]
  toxicity to larvae without MRSA infection: No noticeable cytotoxicity

## CC[C@H](C)[C@H](NC(=O)[C@@H](NC(=O)CNC(=O)[C@@H]1CCCN1C(=O)[C@@H](NC(=O)[C@@H](NC(=O)[C@H](CC(N)=O)NC(=O)[C@H](C)NC(=O)[C@H](C)NC(=O)[C@@H](NC(=O)[C@H](CCCCN)NC(=O)[C@H](CC(C)C)NC(=O)[C@@H](NC(=O)CNC(=O)[C@@H]1CCCN1C(=O)[C@H](CC(C)C)NC(=O)[C@@H](N)Cc1ccccc1)[C@@H](C)CC)C(C)C)C(C)C)C(C)C)C(C)C)C(=O)O [OSa] (H-FLPGILKVAANVVPGVI-OH)
[12]
  MBC: > 512 µM
  MIC: > 512 µM
[13]
  MBC: > 512 µM
  MIC: > 512 µM
[14]
  MBC: > 512 µM
  MIC: > 512 µM
[15]
  MBC: > 512 µM
  MIC: > 512 µM
[16]
  MBC: > 512 µM
  MIC: > 512 µM
[17]
  MBC: > 512 µM
  MIC: > 512 µM
